According to patent US20120071539A1, “COMPOUNDS AND METHODS FOR MODULATING THE SILENCING OF A POLYNUCLEOTIDE OF INTEREST” (Emory University, priority 2006, published 2012):
“And” between values parts separate entries of the source, which are not always exact repeats. Equal entries are not always repeated. “Also recorded” adds a separate entry of the source.

How the values were obtained:
miR-30a-3p = assay: miRNA sensor Luc-T30 dual luciferase assay; format: cell-based; conditions: endogenously expressed miR-30; FIG. 6, FIG. 7
Description: (A) Design of a siRNA duplex against miR-30a precursor (siRNA-p) and a control siRNA duplex (siRNA-c). The miR-30a precursor is provided as SEQ ID NO:1. The siRNA target region is represented by nucleotides 21-40 of SEQ ID NO:1. The siRNA-p is provided as SEQ ID NO:2 and the siRNA-c is provided as SEQ ID NO:3. The double stranded siRNA is shown on the bottom and predicted pairing between one siRNA strand (blue) and the precursor target (green).
In FIG. 6, top left panel, the blue arrowheads in Luc-T30 indicate artificial target sequence against miR-30a-3p. Luc-AT30 has an artificial sequence complementary to that in Luc-T30. […] Relative luciferase activity was calculated by dividing the reporter (Firefly) luciferase activity with co-transfected Renilla luciferase activity. Luciferase activity was decreased by transfecting Luc-T30 in HepG2 (orange bars) without changes in the amount of its mRNA (blue bars). Error bars represent the standard deviation (SD) of three triplicate experiments. […] Error bars represent the standard deviation (SD) from three triplicate experiments. **P=0.004; *****P=0.00001.
This reporter contains the target sequence of miR-30. In the miR-30 system, the endogenously expressed miR-30 was used and, in this cell line, miR-30 has been processed completely. Thus, the addition of enoxacin had no effect.

[1] = tested on: siRNA-mediated mRNA degradation; assay: cell-based reporter screen: human 293 cells stably expressing GFP plus siRNA hairpin against GFP; conditions: pilot screen of The Spectrum Collection; FIG. 3, FIG. 4
Protocol: FIG. 2 discloses one embodiment of the cell-based reporter system of the invention. In this example, a human 293-cell line stably expressing a reporter gene, GFP, was used. This cell line was further transfected with a construct that expresses siRNA hairpin against GFP, which can decrease the level of GFP expression. Individual clones were isolated with greatly (although not completely) reduced GFP expression.
Using the above-identified clones, a screen was performed using The Spectrum Collection (MicroSource Discovery Systems, Inc., Gaylordsville, Conn., United States of America), which contains 2000 biologically active and structurally diverse compounds from libraries of known drugs, experimental bioactives, and pure natural products. For example, in one embodiment, a pilot screen of this library identified one inhibitor and one enhancer of siRNA-mediated mRNA degradation.
To identify the chemical compounds that modulate the siRNA and miRNA pathway, a screening strategy was used. A human 293-cell line stably expressing a reporter gene, GFP, was used. This cell line was further transfected with a construct that expresses siRNA hairpin against GFP, which could knock down the expression of GFP. […] Using these clones, a screen was performed using The Spectrum Collection, which contains 2000 biologically active and structurally diverse compounds from libraries of known drugs, experimental bioactives, and pure natural products.
Human 293 cells stably expressing a reporter gene, GFP, were further transfected with a construct that expresses an siRNA hairpin against GFP, which results in the knock-down of the expression of GFP. Transfected cells containing the siRNA suppressed GPF expression were split and then treated with an effective amount of enoxacin (FIG. 4, second panel) and were grown for a period of 24-48 hours.

[2] = tested on: Clone#3, 293-EGFP-siGFP cells; assay: plate-reader chemical library screen, GFP signal in Clone#3 cells; format: cell-based, human; conditions: 50 mM RNAi-E alone
Description: Further, in some embodiments, additional screens using the same library can be performed to identify other modulators of the siRNA and the miRNA pathways. In some embodiments, instead of examining the GFP signal visually under a microscope, the GFP signal can be quantified using an automatic plate reader. In such embodiments, two additional rounds of screening can be performed. In the first round of screening, the clones can be treated with compounds from a library, e.g., The Spectrum Collection, alone and the GFP level can be quantified after a period of time, e.g., 48 hours. In the second round of screening, the clones can be treated with compounds from a library, e.g., The Spectrum Collection, in the presence of 50 μM RNAi-E, i.e., enoxacin. This assay enables compounds that can modulate the activity of RNAi-E to be identified.
(§1) The presently disclosed chemical library also was screened using a plate reader to quantify the GFP signal intensity. The following screens were conducted: (1) repeating chemical screen using plate reader to quantify the GFP signal (50 mM each drug); (2) treating cells with 50 mM RNAi-I (30 mM each additional drug); and treating cells with […] (30 mM each additional drug).
(§2) For each screen, two types of cells were used: Clone#3 and EGFP. Clone#3 cells are 293-EGFP-siGFP and could be used to identify the modulators of the RNAi pathway. EGFP cells are 293-EGFP only and were used as a control to eliminate the compounds that could kill the cells or interfere GFP signals that are not related to RNAi pathway. The results for each screen are summarized in Table 2 and Table 3, respectively.
(§3) In these three screens, compounds were identified that could either enhance or inhibit RNAi activity in Clone#3, but had no effect on EGFP cells, which would indicate that these compounds might specifically work on RNAi pathway. The modulation of RNAi activity by these compounds was calculated as the percentage of GFP signal to Clone#3 control cells.

EGFP, 293-EGFP cells = assay: plate-reader chemical library screen, GFP signal in control EGFP cells; format: cell-based, human; conditions: GFP signal; 50 mM RNAi-E
Protocol: as §1, §2, §3

[3] = tested on: shRNA against Luciferase mRNA; assay: GL-3 luciferase reporter in cells expressing shRNA against luciferase; format: cell-based; conditions: FIG. 5
Description: In this example, a luciferase reporter construct GL-3 was transfected into the cells expressing shRNA against Luciferase mRNA.

miR-125a = assay: Lin28 3'-UTR luciferase reporter in cells expressing miR-125a; format: cell-based
Description: Referring now to FIG. 8, the 3′-UTR of Lin28 mRNA, a target mRNA of miR-125a, was inserted into the 3′ end of luciferase reporter gene. Lin28-Del is the construct without the target sequence of miR-125a. Lin28 or Lin28-Del was transfected into cells expressing miR-125a. Although RNAi-E had no effect on Lin28-Del, the translation of Lin28 was suppressed by the expression of miR-125a.

tumor cell models = conditions: cited from earlier work
bladder cancer cells = conditions: cited from earlier work
RNAi-293-EGFP/RFP cells = assay: dose-response of GFP/RFP signal ratio in RNAi-293-EGFP/RFP cells; format: cell-based; conditions: at 5 μM; 48 hours; versus Enoxacin 50 μM and 100 μM
Protocol: FIGS. 11A-11D show drug dose-responses for representative metal/Fe chelators. RNAi-293-EGFP/RFP cells were treated with each compound for 48 hours and the GFP/RFP signal ratio was plotted for relative RNAi-enhancing activity (%) using E50 (Enoxacin at 50 μM) as 100% activity.
An additional chemical library screen was performed to identify enhancers and suppressors of RNAi activity. In this screen, RNAi-293-EGFP cells were treated with compounds from a chemical library and endogenous RNAi activity was measured by GFP readout. Four particular compounds were identified in this screen. Further, all four compounds identified in this screen have metal/Fe chelating ability.
These four compounds were further tested by obtaining a drug dose-response curve for each compound at a wide range of concentrations in RNAi-293-EGFP/RFP. After 48 hours, GFP signals were measured by SpectraMax M2^e (Molecular Devices Corporation, Sunnyvale, Calif.). The GFP signals were then normalized over RFP signals to account for variability of cell numbers among wells and then plotted for relative RNAi-enhancing activity, which is set to 100% for a known RNAi-enhancing small molecule, e.g., Enoxacin at 50 μM.

## siRNA-p: siRNA duplex against miR-30a precursor, SEQ ID NO:2 (UGGAAGCUGUGAAGCCACATT; chemistry not given here)
miR-30a-3p
  miRNA-mediated translational suppression of Luc-T30 reporter: reversed the translational suppression

## siRNA-c: control siRNA duplex, SEQ ID NO:3 (UGGUAGCAGUCAUGGCACATT; chemistry not given here)
miR-30a-3p
  miRNA-mediated translational suppression of Luc-T30 reporter: no effect

## CCn1cc(C(=O)O)c(=O)c2cc(F)c(N3CCNCC3)nc21 [enoxacin]
[1]
  siRNA-mediated mRNA degradation and gene knock-down: enhance siRNA-mediated mRNA degradation and gene knock-down
[2]
  Clone#3, 293-EGFP-siGFP cells GFP signal intensity with RNAi-E: 20289248 and 16615771 and 18695953 and 20015152
EGFP, 293-EGFP cells
  EGFP, 293-EGFP cells RNAi-E alone: 177574932 and 1.78E+08 and 229622488 and 212666320 and 2.13E+08 and 138649048
[3]
  knock-down efficiency of shRNA against luciferase mRNA: increased the knock-down efficiency
miR-30a-3p
  miRNA-mediated translational suppression of Luc-T30 reporter: no effect
miR-125a; Lin28 construct, FIG. 8
  suppression of the translation of Lin28 by miR-125a: further enhanced this suppression
miR-125a; construct without the target sequence of miR-125a
  effect on Lin28-Del: no effect

## c1ccc(CNC2CC(NCc3ccccn3)CC(NCc3ccccn3)C2)nc1 (centres unmarked) [Tachpyridine, tachpyridine]
Tumor cell models
  anti-proliferative activity: anti-proliferative activity
Bladder cancer cells
  ferritin synthesis: inhibit
  proliferation of bladder cancer cells in culture: inhibit

## O=C(N/N=C/c1c(O)ccc2ccccc12)c1ccncc1 [compound 311, 2-hydroxy-1-naphthylaldehyde isonicotinoyl hydrazone]
RNAi-293-EGFP/RFP cells
  RNAi-enhancing activity relative to Enoxacin: more effective than Enoxacin
Tumor cell models
  anti-proliferative activity: anti-proliferative activity; also recorded: anti-proliferation activity
